This note sets out measurements from PubChem BioAssay AID588564 (The Scripps Research Institute Molecular Screening Center, 2011).

In general, IC50 refers to the midpoint of a concentration-inhibition curve.

Active and inactive are the calls of the source. Cut-off read from the data, not from the text of the source: active = IC50 below about 10 µM; inactive = the rest.

This assay deals with Neuropeptides B/W receptor type 1 (Homo sapiens) (UniProt P48145). Kind of assay: GPR7 antagonists, dose response, cell-based, fluorescence, set 4 (AID 588564). Particulars: GPR7-expressing cells, fluorescence antagonist assay; run 1.

In the case of `CC(C)c1ccc(Oc2c(Cl)cnn(Cc3cccc4ccccc34)c2=O)cc1`, the IC50 was 350 nM.

On to `COc1ccc(Oc2c(Cl)cnn(Cc3cccc(C)c3)c2=O)cc1`, for which the IC50 was 1430 nM.

`Cc1cccc(Cn2ncc(Oc3ccc(CO)cc3)c(Cl)c2=O)c1`: the IC50 is 3670 nM.

Regarding `COc1ccc(Oc2c(-c3ccsc3)c(-c3ccsc3)nn(Cc3ccccc3C)c2=O)cc1`, the IC50 was 4780 nM.

As for `COc1ccc(Oc2c(Cl)cnn(Cc3cc(Cl)ccc3Cl)c2=O)cc1`, the IC50 was 730 nM.

Turning to `CCCCOC(=O)C(c1ccccc1Cl)n1ncc(Cl)c(Oc2ccc(OC)cc2)c1=O` (stereo not drawn), the half-inhibitory concentration (IC50) is 2150 nM.

As to `COc1ccc(Oc2c(Cl)c(-c3ccc(C(F)(F)F)cc3)nn(Cc3ccccc3C)c2=O)cc1`, the IC50 was 5150 nM.

As for `Cc1cc(C)cc(Cn2[nH]cc(Oc3ccc(CO)cc3)c(=O)c2=O)c1`, the IC50 was 1240 nM.

For the compound `CCOc1ccc(Cn2ncc(Cl)c(Oc3ccc(OC)cc3)c2=O)cc1C#N`, the IC50 result was “inactive”.

For `NCc1ccc(Oc2c(Cl)cnn(Cc3cccc4ccccc34)c2=O)cc1`, the IC50 entry was “inactive”.

Turning to `COc1ccc(Oc2c(Cl)cnn(-c3ccc(Cl)cc3)c2=O)cc1`, the IC50 was 1220 nM.

`COc1ccc(Oc2c(Cl)cnn(C(CO)c3ccccc3)c2=O)cc1` (stereo not drawn): the IC50 is 6050 nM.

Regarding `COc1ccc(Oc2c(C)c(C)nn(Cc3ccccc3C)c2=O)cc1`, the IC50 was 5660 nM.
